Experimental data: US11555210B2, “Microbe having increased tolerance to phenolic fermentation inhibitors” (University of Ottawa, priority 2018, dated 2023)

How the values were obtained:
bna7Δ (YKB4649) = test: serial dilution spot assay on YPD agar plates; assay type: cell-based, S. cerevisiae; conditions: 10 mM FA, 35 mM 4-HBA or 1 mM CA, 48 hr at 30° C.
Procedure: In addition, deletion mutants were generated for genes involved in the tryptophan catabolic pathway and their growth was assayed on solid media containing 10 mM ferulic acid. In particular, wild type yeast (BY4741) along with deletion mutants aro8Δ (YKB4799), bna7Δ (YKB4649), bna2Δ (YKB4798), bna6Δ (YKB4844), bna5Δ (YKB4845), bna4Δ (YKB4846) and bna1Δ (YKB4729) were grown to mid log phase ([…] 0.5-0.6) in YPD medium prior to being diluted to an OD600 of 0.1. Four 10-fold serial dilutions were spotted onto YPD agar plates either containing 10 mM ferulic acid or no ferulic acid. Plates were incubated for 48 hr at 30° C. Images of the plates were taken with the ChemiDoc XRS Molecular Imaging system (Biorad) and images are representative of three biological replicates.
Experiments were also conducted to determine if deletion of BNA7 could provide protection to 4-hydroxybenzoic acid or coniferyl aldehyde (CA). Wild type (BY4741) and bna7A (YKB4649) strains were grown to mid log phase in YPD medium prior to being diluted into fresh medium to an OD600 of 0.1. Four 10-fold serial dilutions were spotted onto YPD agar plates containing either no compound (Untreated), 10 mM ferulic acid (FA), 35 mM 4-hydroxybenzoic acid (4-HBA) or 1 mM coniferyl aldehyde (CA). Plates were incubated for 48 hr at 30° C. and images are representative of three biological replicates.

[1] = tested on: wild-type cells expressing PEX3-RFP, SEC13-RFP or CIT1-RFP; test: co-localization of ROS signal with organelle markers; assay type: cell-based, S. cerevisiae
Description: For co-localization studies, images were obtained as Z-stacks. Co-localization of the fluorescence signals were quantified using the IMARIS software 9.2.1 (Bitplane; http://www.bitplane.com) and a Manders' overlap co-efficient (Manders et al., 1993, Journal of Microscopy. 169, 375-382) was used to evaluate the fraction of RFP pixels (organelle marker) also positive for GFP pixels ([…]). The closer the value is to one, the higher the level of co-localization. The analysis was complemented by performing an object-based quantification where the percentage volume of ROS that localized to the mitochondria and endoplasmic reticulum was measured.

Zwf1-GFP = Zwf1-GFP fluorescence microscopy; assay type: cell-based, S. cerevisiae
Procedure: For the microscopy studies, wild type cells expressing endogenously tagged Zwf1-GFP (YKB4825) were grown to mid log in YPD, prior to being washed and resuspended in YPD medium (Untreated) or YPD medium containing 2 mM coniferyl aldehyde (CA) for 120 min at 30° C. Images (FIG. 8A) are representative of three independent experiments where a minimum of 100 cells each were imaged. Scale bar represents 10 μm.

zwf1Δ strains = test: ROS measurement by H2DCFDA fluorescence microscopy; assay type: cell-based, S. cerevisiae; conditions: 2 mM coniferyl aldehyde; ρ=0.012
Procedure: For all microscopy experiments overnight cultures of wild-type yeast grown at 30° C. were re-suspended at an OD600 of 0.1 in YPD medium and allowed to reach mid-log phase prior to imaging. Measurement of ROS was performed as previously described (Kennedy et al., 2016, Sci Rep. 6, 19332). Briefly cells were incubated with 10 μM 2′,7′-dichlorodihydrofluorescein diacetate (H2DCFDA; Invitrogen cat. #D399) for 15 min in the dark. Cells were washed in sterile PBS to remove traces of the dye after which they were re-suspended in YPD medium alone, or YPD supplemented with either 2 mM coniferyl aldehyde, 10 mM ferulic acid or 50 mM 4-hydroxybenzoic acid or hydrogen peroxide for 1 hour at 30° C. […]
Analysis of H2DCFDA fluorescence was performed using Velocity Software V4 (Perkin Elmer). Image J software was used to quantify the H2DCFDA fluorescence signal in cells as described by Schneider et al (Schneider et al., 2012, Nature Methods, 9, 671-675) with a slight modification. Briefly, background fluorescence was subtracted from the images and the total fluorescence of all the cells in the image was measured and divided by the number of cells in the image. […] The ratio of fluorescence per cell of treated cultures was divided by that of untreated cultures to eliminate background endogenous ROS production. […]

[2] = tested on: Saccharomyces cerevisiae ethanol red; conditions: commercial Saccharomyces cerevisiae ethanol red; Adeboye et al., 2014; cited from earlier work
[3] = 2 mM coniferyl aldehyde, object-based analysis

## COc1cc(C=CC=O)ccc1O [coniferyl aldehyde, 4-hydroxy-3-methoxycinnamaldehyde]
bna7Δ (YKB4649)
  resistance of bna7Δ / protection by deletion of BNA7: does not provide protection
[1]; 2 mM coniferyl aldehyde
  Manders' overlap co-efficient, ROS with ER marker SEC13-RFP: 0.13±0.1
  Manders' overlap co-efficient, ROS with mitochondria marker CIT1-RFP: 0.45±0.04
[1]; [3]
  percentage volume of ROS that localized to the mitochondria: 54.1±17.29%
  total volume of ROS that localized to the ER: 26.5±12.8%
[1]; 2 mM coniferyl aldehyde, peroxisome marker PEX3-RFP
  localization of ROS to peroxisomes: did not localize to the peroxisomes
[1]; after 2 hours of coniferyl aldehyde treatment
  mitochondrial fragmentation: high degree of mitochondrial fragmentation
Zwf1-GFP; 2 mM CA for 120 min at 30° C. (ρ=9.69E-5), ferulic acid 10 mM
  Zwf1-GFP fluorescence signal/cell: significant increase
Zwf1-GFP; 2 mM coniferyl aldehyde, 2 hours
  Zwf1-GFP localization: punctuate localization
zwf1Δ strains
  ROS signal in zwf1Δ compared to wild-type: over two-fold induction
[2]
  concentration at which the compound kills the yeast: 1 mM
